Experimental data: patent US20080194608A1, “6-Phenylhex-5-Enoic Acid Derivatives, Process for the Preparation Thereof, Pharmaceutical Compositions Comprising Them, and Therapeutic Uses Thereof” (priority 2005, published 2008)

Target: T1, chimeric protein PPARγ-Gal4 (Homo sapiens, UniProt P37231)
T1 construct: expressed in transfected cells; host or cells: CV-1 cells (monkey kidney cells)
T1 sequence (P37231 238-503 limits assumed): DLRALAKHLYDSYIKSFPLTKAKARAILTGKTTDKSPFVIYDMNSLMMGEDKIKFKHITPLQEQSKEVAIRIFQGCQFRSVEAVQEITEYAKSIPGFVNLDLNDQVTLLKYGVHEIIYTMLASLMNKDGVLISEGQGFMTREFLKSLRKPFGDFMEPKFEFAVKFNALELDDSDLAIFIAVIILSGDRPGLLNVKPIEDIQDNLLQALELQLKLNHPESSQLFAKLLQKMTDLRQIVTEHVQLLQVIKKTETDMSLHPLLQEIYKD
Assay: PPARγ-Gal4 transactivation (luciferase reporter) test in CV-1 cells
Assay type: cell-based
Procedure: The measurement of the PPAR activation was performed according to a technique described by Lehmann et al. (J. Biol. Chem., 270, (1995), 12953-12956).
CV-1 cells (monkey kidney cells) are cotransfected with an expression vector for the chimeric protein PPARγ-Gal4 and with a “reporter” plasmid that allows expression of the luciferase gene placed under the control of a promoter comprising Gal4 response elements.
The cells are seeded in 96-well microplates and cotransfected using a commercial reagent with the reporter plasmid (pG5-tk-pGL3) and the expression vector for the chimeric protein (PPARγ-Gal4). After incubation for 4 hours, whole culture medium (comprising 10% foetal calf serum) is added to the wells. After 24 hours, the medium is removed and replaced with whole medium comprising the test products. The products are left in contact with the cells for 18 hours. The cells are then lysed and the luciferase activity is measured using a luminometer. A PPARγ activation factor can then be calculated by means of the activation of the expression of the reporter gene induced by the product (relative to the control cells that have received no product).
In the absence of the PPARγ ligand binding domain (vector expressing Gal4 alone), the luciferase activity measured in the presence of an agonist is zero.
The following transactivation result was obtained with a concentration of 10 μM on PPARγ.
The transactivation test using the expression of a chimeric protein Gal-4-PPARγ makes it possible to determine also whether an agonist functions as a “full” agonist or as a “partial” agonist in this system.
An agonist is “partial” in this system if it induces a weaker response, i.e. it has lower efficacy, than rosiglitazone, which is a “full” agonist. In concrete terms, in our system, the transactivation obtained at the plateau with a partial agonist will be between 20% and 50% of the maximum response (efficacy) at the plateau of rosiglitazone.

For `COc1ccccc1OC(CCC=Cc1cc(F)ccc1OCCc1nc(-c2ccccc2)oc1C)C(=O)O` (stereo not drawn) [Example 44, 6-{5-fluoro-2-[2-(5-methyl-2-phenyloxazol-4-yl)ethoxy]phenyl}-2-(2-methoxyphenoxy)hex-5-enoic acid], the “Activation factor of the chimeric protein PPARγ-Gal4” value (10 μM, CV-1 cells (monkey kidney cells), 18 hours contact, relative to control cells without agonist (=1)) was 5.8.
In the case of `CCc1ccc(CCOc2ccc(F)cc2C=CCCC(Oc2ccc(C(F)(F)F)cc2)C(=O)O)nc1` (stereo not drawn) [Example 51, 6-{2-[2-(5-ethylpyridin-2-yl)ethoxy]-5-fluorophenyl)-2-(4-trifluoromethyl-phenoxy)hex-5-enoic acid], the “Concentration to reach the maximum stimulation of the PPARγ chimeric protein” value (CV-1 cells, Gal-4-PPARγ transactivation test) is reported as 10 µM and the Emax (transactivation at the plateau relative to maximum response (efficacy) of rosiglitazone, CV-1 cells, read-out: Maximum stimulation of the PPARγ chimeric protein obtained with rosiglitazone) is reported as 19%.
